The target of one test is T1, ERK2 (Homo sapiens, UniProt P28482).
T1 construct: gene MAPK1
Briefly: IMAP TR-FRET enzymatic kinase (cascade) assay. The class given is biochemical. For orientation: TR-FRET usually uses a lanthanide donor and a delayed reading to cut background.

A further test has as its target T2, ERK1 (Homo sapiens, UniProt P27361).
T2 construct: gene MAPK3
Briefly: IMAP TR-FRET enzymatic kinase (cascade) assay. It is filed as biochemical.

Usually IC50 stands for the concentration needed to halve the response being measured. Read a low IC50 as higher potency.

Structures are written as SMILES.

T2 sequence (P27361 2-379): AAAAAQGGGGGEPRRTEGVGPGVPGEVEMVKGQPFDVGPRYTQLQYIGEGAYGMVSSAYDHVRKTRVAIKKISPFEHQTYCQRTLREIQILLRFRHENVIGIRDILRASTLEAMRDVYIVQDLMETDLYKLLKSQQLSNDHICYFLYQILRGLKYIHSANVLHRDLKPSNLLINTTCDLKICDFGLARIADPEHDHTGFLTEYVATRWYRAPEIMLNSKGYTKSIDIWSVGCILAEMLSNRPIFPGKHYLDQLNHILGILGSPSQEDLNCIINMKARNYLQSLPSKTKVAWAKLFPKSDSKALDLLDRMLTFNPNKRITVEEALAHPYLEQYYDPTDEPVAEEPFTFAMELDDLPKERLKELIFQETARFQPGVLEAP
T1 sequence (P28482 2-360): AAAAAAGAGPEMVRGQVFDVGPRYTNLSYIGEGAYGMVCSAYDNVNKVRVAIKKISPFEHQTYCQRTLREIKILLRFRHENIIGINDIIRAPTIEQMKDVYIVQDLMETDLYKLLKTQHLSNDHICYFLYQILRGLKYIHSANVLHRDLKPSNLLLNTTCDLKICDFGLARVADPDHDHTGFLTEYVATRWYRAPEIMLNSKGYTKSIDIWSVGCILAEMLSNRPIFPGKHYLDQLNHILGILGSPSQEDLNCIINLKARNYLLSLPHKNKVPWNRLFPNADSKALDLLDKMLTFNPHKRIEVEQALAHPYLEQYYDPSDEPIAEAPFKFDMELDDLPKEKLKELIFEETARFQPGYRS

As for `CC(=O)NC(CC(=O)N(c1ccccc1)c1nc2ccccc2s1)c1ccccc1` (centres unmarked) [Z734], the figures for the IC50 against ERK2 and against ERK1 were 3 nM and 9 nM, respectively.

For the origin of these results see paper PMC9319741, “A Novel ERK2 Degrader Z734 Induces Apoptosis of MCF–7 Cells via the HERC3/p53 Signaling Pathway” (Molecules, 2022).
